Test results published in US20110098296A1, “Thiazole And Oxazole Kinase Inhibitors” (priority 2007, published 2011).

How the values were obtained:
EGFR = target: T1, EGFR (Homo sapiens, UniProt P00533); assay: EGFR substrate phosphorylation assay (HTRF); format: biochemical; details: Method (A): Enzyme Mix incubated with compound at 20° C. for 1 hr, reaction started by adding Substrate Mix
T1 construct: made in house; host or cells: baculovirus expression system
In short: (§1)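 Baculovirus-expressed kinase (0.8 nM EGFR or 10 nM ErbB2 in enzyme mix) with Peptide C 0.8 μM and ATP 20 μM (substrate-mix levels), MOPS pH 7.5, MnCl2; 90 min, 20 °C, HTRF anti-phosphotyrosine. Method A adds 1 h enzyme–compound preincubation; B none. pIC50, final compound 0.00027–47.6 μM.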

ErbB2 = target: T2, ErbB2 (Homo sapiens, UniProt P04626); assay: ErbB-2 substrate phosphorylation assay (HTRF); format: biochemical; details: Method (A): Enzyme Mix incubated with compound at 20° C. for 1 hr, reaction started by adding Substrate Mix
T2 construct: made in house; host or cells: baculovirus expression system
T2 sequence (P04626 23-1255): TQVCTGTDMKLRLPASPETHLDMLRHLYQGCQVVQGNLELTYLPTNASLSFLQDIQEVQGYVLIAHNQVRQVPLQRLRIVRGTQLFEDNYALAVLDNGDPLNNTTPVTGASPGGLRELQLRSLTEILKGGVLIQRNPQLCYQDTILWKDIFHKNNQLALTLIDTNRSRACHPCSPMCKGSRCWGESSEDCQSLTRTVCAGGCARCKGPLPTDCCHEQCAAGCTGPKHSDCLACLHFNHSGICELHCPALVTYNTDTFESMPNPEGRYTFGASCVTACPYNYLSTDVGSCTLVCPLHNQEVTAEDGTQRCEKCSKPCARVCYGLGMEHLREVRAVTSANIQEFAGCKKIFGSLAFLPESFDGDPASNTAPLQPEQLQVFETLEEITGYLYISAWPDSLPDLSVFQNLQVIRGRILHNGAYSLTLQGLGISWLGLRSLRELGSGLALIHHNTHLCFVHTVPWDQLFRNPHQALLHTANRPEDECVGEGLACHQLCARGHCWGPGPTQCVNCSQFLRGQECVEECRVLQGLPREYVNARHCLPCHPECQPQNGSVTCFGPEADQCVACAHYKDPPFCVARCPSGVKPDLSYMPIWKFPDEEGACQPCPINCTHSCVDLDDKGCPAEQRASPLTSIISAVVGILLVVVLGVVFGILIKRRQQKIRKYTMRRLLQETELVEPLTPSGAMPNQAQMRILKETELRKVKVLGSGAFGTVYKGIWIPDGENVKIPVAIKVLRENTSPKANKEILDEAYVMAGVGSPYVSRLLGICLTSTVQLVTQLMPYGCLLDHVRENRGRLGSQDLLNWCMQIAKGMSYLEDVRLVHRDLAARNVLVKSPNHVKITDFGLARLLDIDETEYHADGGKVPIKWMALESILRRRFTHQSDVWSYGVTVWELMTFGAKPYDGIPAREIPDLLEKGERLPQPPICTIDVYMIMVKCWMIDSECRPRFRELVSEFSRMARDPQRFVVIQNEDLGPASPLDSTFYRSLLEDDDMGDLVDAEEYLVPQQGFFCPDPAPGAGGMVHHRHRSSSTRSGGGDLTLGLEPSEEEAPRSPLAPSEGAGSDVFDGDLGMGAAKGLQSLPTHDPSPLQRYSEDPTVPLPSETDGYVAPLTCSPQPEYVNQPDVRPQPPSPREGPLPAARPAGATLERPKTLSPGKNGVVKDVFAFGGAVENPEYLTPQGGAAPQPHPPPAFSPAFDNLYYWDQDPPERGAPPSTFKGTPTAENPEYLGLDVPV
In short: as §1

HN5 tumor cells = assay: Method C: Cell Growth Inhibition Assay (CellTiter-Glo), HN5; format: cell-based; details: Homo sapiens, 72 h, 3 days, 4-parameter fit
In short: (§2)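 Plating at 500 cells/well is followed the next day by addition of compound as a 1:3 serial dilution series. After 3 days' incubation, CellTiter-Glo luminescence is read and IC50 is calculated versus DMSO wells.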

BT474 tumor cells = assay: Method C: Cell Growth Inhibition Assay (CellTiter-Glo), BT474; format: cell-based; details: Homo sapiens, BT-474, 72 h, 3 days, 4-parameter fit
Colo205 tumor cells = assay: Method C: Cell Growth Inhibition Assay (CellTiter-Glo), Colo205; format: cell-based; details: Homo sapiens, COLO 205, 72 h, 3 days, 4-parameter fit
In short: (§3)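 500 cells/well; next-day compound, 1:3 serial dilutions, 0.2% DMSO final; 3 d, 37° C, 5% CO2. Readout: CellTiter-Glo luminescence (total ATP as cell-number surrogate). IC50 from 4-parameter fit of % growth inhibition vs vehicle.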

SK-MEL-28 tumor cells = assay: Method C: Cell Growth Inhibition Assay (CellTiter-Glo), SK-MEL-28; format: cell-based; details: Homo sapiens, SK-MEL-28, 72 h, 3 days, 4-parameter fit
In short: as §2

A375P F11s tumor cells = assay: Method C: Cell Growth Inhibition Assay (CellTiter-Glo), A375P F11s; format: cell-based; details: Homo sapiens, 72 h, 3 days, 4-parameter fit
In short: as §2

HT-29 tumor cells = assay: Method C: Cell Growth Inhibition Assay (CellTiter-Glo), HT-29; format: cell-based; details: Homo sapiens, HT-29, 72 h, 3 days, 4-parameter fit
In short: as §2

SK-MEL-3 tumor cells = assay: Method C: Cell Growth Inhibition Assay (CellTiter-Glo), SK-MEL-3; format: cell-based; details: Homo sapiens, SK-MEL3, 72 h, 3 days, 4-parameter fit
In short: as §3

T1 sequence (P00533 25-1210): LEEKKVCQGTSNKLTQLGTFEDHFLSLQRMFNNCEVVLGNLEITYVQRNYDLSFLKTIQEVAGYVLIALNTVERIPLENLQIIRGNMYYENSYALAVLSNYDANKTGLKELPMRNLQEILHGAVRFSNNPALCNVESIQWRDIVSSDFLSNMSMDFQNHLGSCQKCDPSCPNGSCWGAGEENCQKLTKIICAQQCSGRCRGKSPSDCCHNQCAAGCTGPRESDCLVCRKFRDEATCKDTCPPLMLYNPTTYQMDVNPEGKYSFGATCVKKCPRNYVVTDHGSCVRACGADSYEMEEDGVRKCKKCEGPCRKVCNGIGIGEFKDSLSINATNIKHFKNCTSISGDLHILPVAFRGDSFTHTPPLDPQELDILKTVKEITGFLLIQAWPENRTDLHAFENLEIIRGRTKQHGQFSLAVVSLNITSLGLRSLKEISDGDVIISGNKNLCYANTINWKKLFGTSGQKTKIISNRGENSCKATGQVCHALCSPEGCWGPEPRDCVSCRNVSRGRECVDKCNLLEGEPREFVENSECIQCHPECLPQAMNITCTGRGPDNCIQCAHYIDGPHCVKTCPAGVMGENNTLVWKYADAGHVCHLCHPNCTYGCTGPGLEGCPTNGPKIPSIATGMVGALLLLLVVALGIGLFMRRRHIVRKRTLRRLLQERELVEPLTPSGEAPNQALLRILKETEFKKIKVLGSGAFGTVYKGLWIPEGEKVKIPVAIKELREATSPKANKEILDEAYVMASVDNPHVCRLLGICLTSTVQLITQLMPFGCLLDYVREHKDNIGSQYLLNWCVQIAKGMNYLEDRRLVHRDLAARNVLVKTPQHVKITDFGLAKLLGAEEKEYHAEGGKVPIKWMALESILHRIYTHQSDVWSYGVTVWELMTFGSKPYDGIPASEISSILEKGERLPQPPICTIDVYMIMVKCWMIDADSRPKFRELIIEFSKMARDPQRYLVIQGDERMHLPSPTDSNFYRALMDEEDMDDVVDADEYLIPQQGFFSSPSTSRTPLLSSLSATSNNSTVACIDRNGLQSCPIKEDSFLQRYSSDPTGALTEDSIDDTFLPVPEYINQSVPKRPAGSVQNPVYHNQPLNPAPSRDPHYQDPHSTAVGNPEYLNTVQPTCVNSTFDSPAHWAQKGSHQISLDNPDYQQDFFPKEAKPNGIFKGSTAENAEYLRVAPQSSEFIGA

SMILES	IC50 (EGFR) [nM]	IC50 (ErbB2) [nM]	IC50 (HN5 tumor cells) [nM]	IC50 (BT474 tumor cells) [nM]	IC50 (Colo205 tumor cells) [nM]	IC50 (SK-MEL-28 tumor cells) [nM]	IC50 (A375P F11s tumor cells) [nM]	IC50 (HT-29 tumor cells) [nM]	IC50 (SK-MEL-3 tumor cells) [nM]
Cc1nc(-c2cccc(NC(=O)c3c(F)cccc3F)c2)c(-c2ccnc(Nc3ccc(OCCN(C)C)c(F)c3)n2)s1 [Example 105, N-[3-(5-{2-[(4-{[2-(Dimethylamino)ethyl]oxy}-3-fluorophenyl)amino]-4-pyrimidinyl}-2-methyl-1,3-thiazol-4-yl)phenyl]-2,6-difluorobenzamide]	< 100	< 100	< 100	< 100	100 to 1000	> 1000	100 to 1000	100 to 1000	> 1000
Cc1nc(-c2cccc(NC(=O)c3c(F)cccc3F)c2)c(-c2ccnc(Nc3ccc(OC4CCNCC4)c(F)c3)n2)s1 [Example 107, 2,6-DUDuoro-N-{3-[5-(2-{[3-fluoro-4-(4-piperidinyloxy)phenyl]amino}-4-pyrimidinyl)-2-methyl-1,3-thiazol-4-yl]phenyl}benzamide]	< 100	< 100	< 100	< 100	100 to 1000	100 to 1000	100 to 1000	100 to 1000	100 to 1000
Cc1nc(-c2cccc(NC(=O)c3c(F)cccc3F)c2)c(-c2ccnc(Nc3ccc(OC4CCN(C)CC4)c(F)c3)n2)s1 [Example 108, 2,6-Difluoro-N-(3-{5-[2-({3-fluoro-4-[(1-methyl-4-piperidinyl)oxy]phenyl}amino)-4-pyrimidinyl]-2-methyl-1,3-thiazol-4-yl}phenyl)benzamide]	< 100	< 100	100 to 1000	< 100	100 to 1000	> 1000	100 to 1000	100 to 1000	> 1000
CC(=O)N1CCC(Oc2ccc(Nc3nccc(-c4sc(C)nc4-c4cccc(NC(=O)c5c(F)cccc5F)c4)n3)cc2F)CC1 [Example 109, N-(3-{5-[2-({4-[(1-Acetyl-4-piperidinyl)oxy]-3-fluorophenyl}amino)-4-pyrimidinyl]-2-methyl-1,3-thiazol-4-yl}phenyl)-2,6-difluorobenzamide]	< 100	< 100	100 to 1000	100 to 1000	> 1000	> 1000	> 1000	> 1000	> 1000
Cc1nc(-c2cccc(NC(=O)c3c(F)cccc3F)c2)c(-c2ccnc(Nc3ccc(OC4CCN(C(C)C)CC4)c(F)c3)n2)s1 [Example 111, 2,6-Difluoro-N-[3-(5-{2-[(3-fluoro-4-{[1-(1-methylethyl)-4-piperidinyl]oxy}phenyl)amino]-4-pyrimidinyl}-2-methyl-1,3-thiazol-4-yl)phenyl]benzamide]	< 100	< 100	100 to 1000	< 100	100 to 1000	100 to 1000	100 to 1000	100 to 1000	100 to 1000
CCc1nc(-c2cccc(NC(=O)c3c(F)cccc3F)c2)c(-c2ccnc(Nc3ccc(OCCN(C)C)c(F)c3)n2)s1 [Example 112, N-[3-(5-{2-[(4-{[2-(Dimethylamino)ethyl]oxy}-3-fluorophenyl)amino]-4-pyrimidinyl}-2-ethyl-1,3-thiazol-4-yl)phenyl]-2,6-difluorobenzamide]	< 100	< 100	100 to 1000	< 100	100 to 1000	> 1000	100 to 1000	100 to 1000	> 1000
CCc1nc(-c2cccc(NC(=O)c3c(F)cccc3F)c2)c(-c2ccnc(Nc3ccc(OCCN4CCCC4)c(Cl)c3)n2)s1 [Example 113, N-[3-(5-{2-[(3-Chloro-4-{[2-(1-pwrolidinyl)ethyl]oxy}phenyl)amino]-4-pyrimidinyl}-2-ethyl-1,3-thiazol-4-yl)phenyl]-2,6-difluorobenzamide]	< 100	< 100	100 to 1000	100 to 1000	> 1000	> 1000	100 to 1000	100 to 1000	100 to 1000
CCc1nc(-c2cccc(NC(=O)c3c(F)cccc3F)c2)c(-c2ccnc(Nc3ccc(OCCN(C)C)c(Cl)c3)n2)s1 [Example 114, N-[3-(5-{2-[(3-Chloro-4-{[2-(dimethylamino)ethyl]oxy}phenyl)amino]-4-pyrimidinyl}-2-ethyl-1,3-thiazol-4-yl)phenyl]-2,6-difluorobenzamide]	< 100	< 100	100 to 1000	100 to 1000	100 to 1000	100 to 1000	100 to 1000	100 to 1000	> 1000
CC(C)c1nc(-c2cccc(NC(=O)c3c(F)cccc3F)c2)c(-c2ccnc(Nc3ccc(OCCN4CCCC4)c(Cl)c3)n2)s1 [Example 121, N-{3-[5-{2-[(3-chloro-4-{[2-(1-pyrrolidinyl)-ethyl]oxy}phenyl)amino]-4-pyrimidinyl}-2-(1-methylethyl)-1,3-thiazol-4-yl]phenyl}-2,6-difluorobenzamide]	< 100	< 100	100 to 1000	100 to 1000	100 to 1000	100 to 1000	100 to 1000	100 to 1000	100 to 1000
CN1CCc2ccc(Nc3nccc(-c4sc(C5CCNCC5)nc4-c4cccc(NC(=O)c5c(F)cccc5F)c4)n3)cc2C1 [Example 124, 2,6-Difluoro-N-{3-[5-{2-[(2-methyl-1,2,3,4-tetrahydro-7-isoquinolinyl)amino]-4-pyrimidinyl}-2-(4-piperidinyl)-1,3-thiazol-4-yl]phenyl}benzamide]	< 100	< 100	100 to 1000	100 to 1000	100 to 1000	> 1000	> 1000	> 1000	> 1000
O=C(Nc1cccc(-c2nc(CO)sc2-c2ccnc(Nc3ccc(OCCN4CCCC4)c(F)c3)n2)c1)c1c(F)cccc1F [Example 126, 2,6-Difluoro-N-{3-[5-{2-[(3-fluoro-4-{[2-(1-pyrrolidinyl)ethyl]oxy}phenyl)amino]-4-pyrimidinyl}-2-(hydroxymethyl)-1,3-thiazol-4-yl]phenyl}benzamide]	< 100	< 100	< 100	< 100	100 to 1000	100 to 1000	100 to 1000	100 to 1000	100 to 1000
Cc1nc(-c2cccc(NC(=O)c3cc(F)ccc3F)c2)c(-c2ccnc(Nc3ccc(OCCN(C)C)c(F)c3)n2)s1 [Example 128, N-[3-(5-{2-[(4-{[2-(Dimethylamino)ethyl]oxy}-3-fluorophenyl)amino]-4-pyrimidinyl}-2-methyl-1,3-thiazol-4-yl)phenyl]-2,5-difluorobenzamide]	< 100	< 100	100 to 1000	100 to 1000	> 1000	> 1000	> 1000	100 to 1000	> 1000
Cc1nc(-c2cccc(NC(=O)c3cccc(C(F)(F)F)c3)c2)c(-c2ccnc(Nc3ccc4c(c3)CN(C)CC4)n2)s1 [Example 131, N-[3-(2-Methyl-5-{2-[(2-methyl-1,2,3,4-tetrahydro-7-isoquinolinyl)amino]-4-pyrimidinyl}-1,3-thiazol-4-yl)phenyl]-3-(trifluoromethyl)benzamide]	< 100	< 100	> 1000	> 1000	> 1000	> 1000	> 1000	> 1000	> 1000
